This passage reports MIC results from patent US20050061967A1, “Pattern recognition of whole cell mass spectra” (priority 2003, published 2005).

Holding throughout (experiment): MIC of antibiotics, antibiotic resistance profile of Salmonella enterica isolates
What all share (assay type): cell-based

In test [1] the test system is Salmonella enterica serotype Worthington isolates. An excerpt: (§1) To identify charge state of each ion cluster, we performed the following analyses on twenty-nine Salmonella enterica isolates (21 of serotype Heidelberg, 3 Anatum, 3 Worthington and 2 Muenster) from a turkey production environment. From the high mass end of the spectrum, we divided each ion peak by 2 or 3, look there for a corresponding peak. Ions at small integer dividends are then tabulated together with the largest, assumed to be a+1 charge state. Based on the assigned charge state, sum intensities (in the raw spectra) arising from nearby adducts or losses were calculated at their charge-state-predicted interval. The total around each same-charge-state cluster were added to the total for the same biomarker at its other identified charge states. Spectra were smoothed, the background was subtracted and then peaks were detected. Deconvolution was based on peaks at least 3% intensity of the base peak.
(§2) The Salmonella enterica isolates were also typed by their antibiotic resistance and Pulsed-Field Gel Electrophoresis (PFGE) patterns. The isolates'=0 resistance profile, a common and obviously important phenotypic assay, was determined for twenty antibiotics commonly used in veterinary medicine to control Salmonella infections. PFGE is the most common and widely accepted genotypic method currently in use. The PFGE patterns were analyzed by statistical pattern recognition to produce a dendrogram in which similar gel patterns are clustered so that they appear in or near the same branch of a similarity “tree.” Then the two types of mass spectra for the same twenty-nine samples, under several variations, were also evaluated by pattern recognition.

The test system of test [2] is Salmonella enterica serotype Muenster isolates.
Source text: as §1, §2

Test [3] concerns Salmonella enterica serotype Heidelberg isolates. The protocol: as §2
The subject of test [4] is Salmonella enterica serotype Anatum isolates.
Source text: as §1, §2

The mark [5] stands for this setting: 29th of 29 isolates (ID printed 9).
[6] abbreviates: 6th of 29 isolates (ID cell blank).
Setting [7] is: 9th of 29 isolates (ID cell blank).
Setting [8] is: 1st of 29 isolates (ID cell blank), turkey production environment.
The mark [9] stands for this setting: 2nd of 29 isolates (ID cell blank).
Where [10] appears, read: 3rd of 29 isolates (ID cell blank).
[11] abbreviates: 7th of 29 isolates (ID cell blank).
Where [12] appears, read: 18th of 29 isolates (ID printed 8).
Where [13] appears, read: 22nd of 29 isolates (ID printed 2).

The MIC is the lowest concentration found to suppress growth. Turning to `CC[C@H]1OC(=O)[C@H](C)[C@@H](O[C@H]2C[C@@](C)(OC)[C@@H](O)[C@H](C)O2)[C@H](C)[C@@H](O[C@@H]2O[C@H](C)C[C@H](N(C)C)[C@H]2O)[C@](C)(O)C[C@@H](C)C(=O)[C@H](C)[C@@H](O)[C@]1(C)O` [Er], the MIC in test [1] (26th of 29 isolates (ID 6)) is 64 µg/mL; in test [2] (28th of 29 isolates (ID printed 8)), 512 µg/mL; in test [2] (setting [5]), 32 µg/mL; in test [3] (4th of 29 isolates (ID cell blank)), 512 µg/mL; in test [3] (setting [6]), >512 µg/mL; in test [3] (8th of 29 isolates (ID cell blank)) it was 512 µg/mL. The MIC in test [3] (setting [7]), in test [3] (10th of 29 isolates (ID 0)), in test [3] (11th of 29 isolates (ID 1)), in test [3] (13th of 29 isolates (ID 3)), in test [3] (14th of 29 isolates (ID 4)) and in test [3] (15th of 29 isolates (ID 5)) was 512 µg/mL each time. The minimum inhibitory concentration (MIC) in test [3] (20th of 29 isolates (ID 0)) is 512 µg/mL.
On to `CN(C)C1C(O)=C(C(N)=O)C(=O)C2(O)C(O)=C3C(=O)c4c(O)cccc4C(C)(O)C3CC12` (stereo not drawn) [Te], for which the minimal inhibitory concentration (MIC) in test [1] (17th of 29 isolates (ID printed 7)) was determined as 32 µg/mL; in test [1] (26th of 29 isolates (ID 6)) it was 32 µg/mL; in test [1] (27th of 29 isolates (ID printed 7)) it was 32 µg/mL; in test [4] (setting [8]) it was 512 µg/mL; in test [4] (setting [9]), 256 µg/mL; in test [4] (setting [10]), 256 µg/mL. The results for the MIC in test [3] (5th of 29 isolates (ID cell blank)), in test [3] (10th of 29 isolates (ID 0)) and in test [3] (24th of 29 isolates (ID 4)) were 128 µg/mL, 256 µg/mL and 256 µg/mL, respectively.
Take `CN[C@@H]1[C@H](O[C@H]2[C@H](O[C@H]3[C@H](O)[C@@H](O)[C@H](N=C(N)N)[C@@H](O)[C@@H]3N=C(N)N)O[C@@H](C)[C@]2(O)C=O)O[C@@H](CO)[C@H](O)[C@H]1O` [St]: the MIC was 256 µg/mL in test [4] (setting [8]); 256 µg/mL in test [4] (setting [9]); 256 µg/mL in test [4] (setting [10]); >256 µg/mL in test [2] (setting [5]); >256 µg/mL in test [3] (setting [6]); >256 µg/mL in test [3] (setting [11]). The MIC in test [3] (setting [7]), in test [3] (10th of 29 isolates (ID 0)), in test [3] (11th of 29 isolates (ID 1)), in test [3] (13th of 29 isolates (ID 3)), in test [3] (14th of 29 isolates (ID 4)) and in test [3] (15th of 29 isolates (ID 5)) was >256 µg/mL in each case. The MIC in test [3] (16th of 29 isolates (ID 6)), in test [3] (setting [12]), in test [3] (20th of 29 isolates (ID 0)), in test [3] (21st of 29 isolates (ID 1)), in test [3] (setting [13]) and in test [3] (24th of 29 isolates (ID 4)) was >256 µg/mL each time.
On to `CN[C@@H]1[C@H](O)[C@H](NC)[C@H]2O[C@@]3(O)C(=O)C[C@@H](C)O[C@H]3O[C@@H]2[C@H]1O` [Spt], for which the MIC in test [3] (setting [6]), in test [3] (setting [11]), in test [3] (setting [7]), in test [3] (10th of 29 isolates (ID 0)), in test [3] (11th of 29 isolates (ID 1)) and in test [3] (13th of 29 isolates (ID 3)) was >512 µg/mL each time. For the same compound, the MIC in test [3] (14th of 29 isolates (ID 4)), in test [3] (15th of 29 isolates (ID 5)), in test [3] (16th of 29 isolates (ID 6)), in test [3] (setting [12]), in test [3] (20th of 29 isolates (ID 0)) and in test [3] (21st of 29 isolates (ID 1)) was >512 µg/mL each time. Further, the MIC in test [3] (setting [13]) and in test [3] (24th of 29 isolates (ID 4)) was >512 µg/mL each time.
